Test [1] concerns 24-hydroxylase (24OHase) gene promoter. In words: Transcription activation, 24-hydroxylase promoter luciferase reporter in ROS 17/2.8 (bone) cells. It counts as cell-based. The following applies: ROS 17/2.8 cells, 16 hours after dosing, FIG. 4. As for the experimental part: Transcriptional activity was measured in ROS 17/2.8 (bone) cells that were stably transfected with a 24-hydroxylase (24OHase) gene promoter upstream of a luciferase reporter gene (Arbour et al., 1998). Cells were given a range of doses. Sixteen hours after dosing the cells were harvested and luciferase activities were measured using a luminometer.
“RLU” in FIG. 4 refers to relative luciferase units.
(Reporter assays use an easily measured gene product as a stand-in for the process of interest.)

Test [2] deals with Male, weanling Sprague-Dawley rats. In words: Intestinal calcium transport (everted gut sac method). It counts as in vivo, rat. The following applies: four consecutive ip doses, FIG. 5. As for the experimental part: (§1) Male, weanling Sprague-Dawley rats were placed on Diet 11 (0.47% Ca) diet+AEK for one week followed by Diet 11 (0.02% Ca)+AEK for 3 weeks. The rats were then switched to a diet containing 0.47% Ca for one week followed by two weeks on a diet containing 0.02% Ca. Dose administration began during the last week on 0.02% calcium diet. Four consecutive ip doses were given approximately 24 hours apart. Twenty-four hours after the last dose, blood was collected from the severed neck and the concentration of serum calcium determined as a measure of bone calcium mobilization. The first 10 cm of the intestine was also collected for intestinal calcium transport analysis using the everted gut sac method.

Test [3] shares this test system. In words: Bone calcium mobilization (serum calcium). It counts as in vivo, rat. Particulars: four consecutive ip doses, FIG. 6. As for the experimental part: as §1
Test [4] has as its target T1, recombinantly produced rat receptor (1α,25-hydroxyvitamin D3 rat receptor) (Rattus norvegicus, UniProt P13053).
T1 construct: made in house
T1 sequence (P13053 1-423): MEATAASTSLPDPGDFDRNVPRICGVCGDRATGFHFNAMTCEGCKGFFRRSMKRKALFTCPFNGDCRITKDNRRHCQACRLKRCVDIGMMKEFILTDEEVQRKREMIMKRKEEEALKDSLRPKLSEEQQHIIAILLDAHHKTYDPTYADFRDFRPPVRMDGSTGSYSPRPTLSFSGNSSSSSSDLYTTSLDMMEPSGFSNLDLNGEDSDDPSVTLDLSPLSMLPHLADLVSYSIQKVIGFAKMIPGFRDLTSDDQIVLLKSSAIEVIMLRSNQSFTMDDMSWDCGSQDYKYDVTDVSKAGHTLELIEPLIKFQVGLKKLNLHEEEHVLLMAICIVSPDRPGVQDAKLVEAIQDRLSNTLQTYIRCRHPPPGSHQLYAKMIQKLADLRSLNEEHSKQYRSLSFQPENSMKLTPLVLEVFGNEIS
Put plainly: Competitive VDR binding. The following applies: FIGS. 1 and 2. On the procedure:
Competitive binding of the analogs to the porcine intestinal receptor was carried out by the method described by Dame et al (Biochemistry 25, 4523-4534, 1986), except the recombinantly produced rat receptor was used as the receptor (see Vanhooke et al., Biochemistry, in press, 2004).

Test [5] concerns human leukemia cells (HL-60 cells). Put plainly: HL-60 cell differentiation (NBT reduction). In kind it is cell-based. Particulars: for potency in promoting the differentiation of leukemia cells: HL-60 cells, compared with 1α,25-dihydroxyvitamin D3 and 2MD, FIG. 3; for percent of HL-60 cells induced to differentiate: NBT assay, concentration 1×10^−7M. As for the experimental part: The differentiation of HL-60 promyelocytic into monocytes was determined as described by Ostrem et al (J. Biol. Chem. 262, 14164-14171, 1987).
Differentiation activity was assessed by a standard differentiation assay, abbreviated as NBT reduction (nitroblue tetrazolium reduction). The assay was conducted according to known procedures, as given, for example, by DeLuca et al U.S. Pat. No. 4,717,721 and Ostrem et al, J. Biol. Chem. 262, 14164, 1987. For the assay, the differentiation activity of the test compounds is expressed in terms of the percent of HL-60 cells having differentiated to normal cells in response to a given concentration of test compound.

In the case of “2-[(3′-methoxymethoxy)propylidene]-19-nor-1α,25-dihydroxyvitamin D3 [F-Wit]”, in test [1], the “transcriptional activity in bone cells” value is recorded as “significant transcriptional activity”. Moreover, in test [2], the “intestinal calcium transport activity” value is on record as “relatively high intestinal calcium transport activity” and the “intestinal calcium transport activity compared with 2MD” value is “more active than 2MD”. In test [3], the “ability to mobilize calcium from bone” value is listed as “significant ability to mobilize calcium from bone” and the “bone calcium mobilization compared with 2MD” value is reported as “less active in this regard than 2MD”.
As for “2-(3′-hydroxypropylidene)-19-nor-1α,25-(OH)2D3 [1AGR]”, the “activity in binding to the 1α,25-hydroxyvitamin D3 rat receptor” value in test [4] was “very active”. In test [5], the “potency in promoting the differentiation of leukemia cells” value is “as potent as 1α,25-dihydroxyvitamin D3 and 2MD”; the “percent of HL-60 cells induced to differentiate” value is recorded as “the same degree of differentiation”. Further, in test [1], the “transcriptional activity in bone cells” value is reported as “significant transcriptional activity”. Besides, in test [2], the “intestinal calcium transport activity” value is on record as “relatively high intestinal calcium transport activity” and the “intestinal calcium transport activity compared with 2MD” value is reported as “more active than 2MD”. Besides, in test [3], the “ability to mobilize calcium from bone” value is reported as “significant ability to mobilize calcium from bone” and the “bone calcium mobilization compared with 2MD” value is recorded as “less active in this regard than 2MD”.
With “2-(3′-hydroxypropylidene)-19-nor-(20S)-1α,25-(OH)2D3 [1AGS]”, the “activity in binding to the 1α,25-hydroxyvitamin D3 rat receptor” value in test [4] is recorded as “very active”. For the same substance, in test [5], the “potency in promoting the differentiation of leukemia cells” value was “as potent as 1α,25-dihydroxyvitamin D3 and 2MD”; the “percent of HL-60 cells induced to differentiate” value is recorded as “the same degree of differentiation”. In addition, the “transcriptional activity in bone cells” value in test [1] is listed as “significant transcriptional activity”. In test [2], the “intestinal calcium transport activity” value is on record as “relatively high intestinal calcium transport activity” and the “intestinal calcium transport activity compared with 2MD” value is recorded as “more active than 2MD”. In test [3], the “ability to mobilize calcium from bone” value is “significant ability to mobilize calcium from bone” and the “bone calcium mobilization compared with 2MD” value is on record as “less active in this regard than 2MD”.

The values above are taken from patent publication US7531527B2, “2-Propylidene-19-nor-vitamin D compounds” (Wisconsin Alumni Research Foundation, priority 2003, dated 2009).
